The subject of test [1] is 3T3-L1 adipocytes. As to the kind of experiment: Standardization / validation of [3H]-glucose uptake 3T3-L1 assay with insulin and glitazone. It is filed as cell-based. The following applies: for [3H]-glucose uptake with insulin: in cpm (unit assumed); for Counts with insulin: insulin alone control. The method, then:
In the first set of assays (insulin control and the first 9 samples) cells were grown in 96 well plates, and assayed for 3H-deoxyglucose uptake. Briefly cells were treated with plant extract overnight and immediately before the assay got washed with Krebs-Ringer-HEPES Buffer [20 mM HEPES, pH 7.4, 136 mM NaCl, 4.7 mM KCl, 1.5 mM MgSO4] at 37° C. for 30 minutes and then treated with insulin. Glucose uptake reaction was initiated by adding 0.1 mM deoxy-glucose containing deoxy-tritiated-glucose containing 12.2 kBq/mL. After 30 minutes of 37° C. incubation, the reaction was terminated by adding 40 uM cytochalasin-B. Cells were washed 3× with ice cold KRH buffer and solubilized with 100 μl of 10% Triton-X with Ca/Mg free PBS. Radioactivity incorporated into cells was measured on a top count microplate scintillation counter. Results are being interpreted as mean±SD of counts per minute.
As the basal counts were low, the assay design was changed to a 24-well format and the cell numbers increased from 100,000 cells per well to 2 million cells per well.
The two controls in this experiment were: (a) [^3H]-deoxyglucose uptake by cells in the absence of both insulin and plant extracts, and (b) [^3H]-deoxyglucose uptake by cells in the presence of insulin and absence of plant extracts.

Test [2] deals with 3T3-L1 adipocytes. The test is described as above. It is filed as cell-based. As to conditions: 48 hrs.

Regarding `O=C1NC(=O)C(Cc2ccc(O)cc2)S1` (stereo not drawn) [Glitazone], the Counts per minute was 15900.4 Counts per minute with 3T3-L1 adipocytes [1] (Glitazone 150 μg, 48 hrs); 7886 Counts per minute in the test on 3T3-L1 adipocytes [2] (Glitazone 60 μg); 47971.9 Counts per minute in the test on 3T3-L1 adipocytes [2] (Glitazone 300 μg).

Insulin: the “[3H]-glucose uptake with insulin” value is given as 60.5 in the test with 3T3-L1 adipocytes [1] (100,000 cells/well, Insulin 1 nM); 502 with 3T3-L1 adipocytes [1] (100,000 cells/well, Insulin 10 nM); 1850 in the test on 3T3-L1 adipocytes [1] (100,000 cells/well, Insulin 100 nM); 36562 in the test with 3T3-L1 adipocytes [1] (2,000,000 cells/well, Insulin 10 nM); 38538 in the test on 3T3-L1 adipocytes [1] (2,000,000 cells/well, Insulin 25 nM); 55258 in the test on 3T3-L1 adipocytes [1] (2,000,000 cells/well, Insulin 100 nM). The Counts per minute in the test on 3T3-L1 adipocytes [1] (Insulin 25 nM, 15 min) turned out to be 48026.7 Counts per minute; in the test on 3T3-L1 adipocytes [1] (Insulin 25 nM, 30 min) it was 24699.9 Counts per minute; in the test with 3T3-L1 adipocytes [1] (Insulin 25 nM, 60 min), 28103.3 Counts per minute. Moreover, the “[3H]-deoxyglucose uptake, Counts per minute” value in the test with 3T3-L1 adipocytes [1] (control: cells + insulin, no plant extract) is 36561 Counts per minute. For the same molecule, the Counts with insulin came to 33065.1 Counts per minute in the test on 3T3-L1 adipocytes [1] (Table 15, first of two value columns) and 32352.28 Counts per minute in the test with 3T3-L1 adipocytes [1] (Table 15, second of two value columns).
